In patent publication US7880007B2, “Bicyclic substituted phenyl piperidine modulators of muscarinic receptors” (Vertex Pharmaceuticals Incorporated, priority 2004, dated 2011):

How the values were obtained:
Format in all cases: cell-based
[1] = molecular target: T1, M1 muscarinic receptor (Homo sapiens, UniProt P11229); experiment: Functional mobilization of intracellular calcium (FLIPR), M1-CHO cells; details: for M1 Activity: M1-CHO cells, calcium mobilization (FLIPR)
T1 construct: expressed in transfected cells; host or cells: CHO (M1-CHO)
T1 sequence (P11229 1-460): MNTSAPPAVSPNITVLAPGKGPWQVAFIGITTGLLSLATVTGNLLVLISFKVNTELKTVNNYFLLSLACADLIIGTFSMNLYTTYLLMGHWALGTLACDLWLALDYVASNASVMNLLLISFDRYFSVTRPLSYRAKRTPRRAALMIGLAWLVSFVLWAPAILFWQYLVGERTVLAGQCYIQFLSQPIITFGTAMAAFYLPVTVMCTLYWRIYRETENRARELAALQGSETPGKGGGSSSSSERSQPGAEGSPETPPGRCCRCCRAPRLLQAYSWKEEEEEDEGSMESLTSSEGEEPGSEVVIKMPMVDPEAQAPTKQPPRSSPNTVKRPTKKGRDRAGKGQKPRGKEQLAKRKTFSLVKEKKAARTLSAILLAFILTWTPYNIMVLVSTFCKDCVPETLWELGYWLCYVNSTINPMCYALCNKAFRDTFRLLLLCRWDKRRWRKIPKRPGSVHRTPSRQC
How it was run: (§1)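 CHO cells expressing human M1–M4 receptors loaded with Fluo-3 AM or Calcium 3 dye (1 mM probenecid, pH 7.4); 0.5% DMSO final. Agonist mode: compound added directly; antagonist mode: 15 min pre-incubation or co-application, then carbachol at EC80. Fluorescence read 60 s on FLIPR; efficacy relative to carbachol maximum.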

[2] = molecular target: T2, M4 muscarinic receptor (Homo sapiens, UniProt P08173); experiment: Functional mobilization of intracellular calcium (FLIPR), M4-CHO cells; details: for M4 Activity: M4-CHO cells, calcium mobilization (FLIPR)
T2 construct: expressed in transfected cells; host or cells: CHO (M4-CHO)
T2 sequence (P08173 1-479): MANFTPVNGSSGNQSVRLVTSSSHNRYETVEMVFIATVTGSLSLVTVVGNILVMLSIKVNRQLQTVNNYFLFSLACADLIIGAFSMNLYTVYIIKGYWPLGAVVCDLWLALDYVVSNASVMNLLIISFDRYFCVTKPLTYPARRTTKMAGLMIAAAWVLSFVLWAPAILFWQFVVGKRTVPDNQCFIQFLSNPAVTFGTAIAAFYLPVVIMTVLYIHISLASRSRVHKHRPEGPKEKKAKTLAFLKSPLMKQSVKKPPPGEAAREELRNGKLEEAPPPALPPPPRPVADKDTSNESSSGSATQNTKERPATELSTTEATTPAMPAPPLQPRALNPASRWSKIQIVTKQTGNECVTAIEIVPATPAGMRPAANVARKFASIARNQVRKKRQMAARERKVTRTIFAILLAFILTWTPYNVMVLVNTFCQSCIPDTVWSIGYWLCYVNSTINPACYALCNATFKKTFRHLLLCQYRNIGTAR
How it was run: as §1

[3] = molecular target: T3, M3 muscarinic receptor (Homo sapiens, UniProt P20309); experiment: Functional mobilization of intracellular calcium (FLIPR), M3-CHO cells; details: for M3 Activity: M3-CHO cells, calcium mobilization (FLIPR)
T3 construct: expressed in transfected cells; host or cells: CHO (M3-CHO)
T3 sequence (P20309 whole entry): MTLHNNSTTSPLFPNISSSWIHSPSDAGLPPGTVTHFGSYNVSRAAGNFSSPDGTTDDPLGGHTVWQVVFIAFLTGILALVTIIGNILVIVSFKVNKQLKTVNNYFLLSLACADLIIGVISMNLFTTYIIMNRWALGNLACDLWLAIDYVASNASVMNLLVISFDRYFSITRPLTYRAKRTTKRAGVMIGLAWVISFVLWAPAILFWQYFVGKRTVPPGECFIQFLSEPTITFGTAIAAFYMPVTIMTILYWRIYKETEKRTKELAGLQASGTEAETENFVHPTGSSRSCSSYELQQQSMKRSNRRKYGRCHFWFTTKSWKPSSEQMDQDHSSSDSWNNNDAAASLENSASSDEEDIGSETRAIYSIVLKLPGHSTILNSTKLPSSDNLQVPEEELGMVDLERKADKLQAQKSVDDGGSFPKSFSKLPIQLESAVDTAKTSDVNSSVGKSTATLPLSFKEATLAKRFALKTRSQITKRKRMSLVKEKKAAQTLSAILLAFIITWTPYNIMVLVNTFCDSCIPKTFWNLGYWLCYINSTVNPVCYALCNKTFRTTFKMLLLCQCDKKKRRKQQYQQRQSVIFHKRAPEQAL
How it was run: as §1

[4] = molecular target: T4, M2 muscarinic receptor (Homo sapiens, UniProt P08172); experiment: Functional mobilization of intracellular calcium (FLIPR), M2-CHO cells; details: for M2 Activity: M2-CHO cells, calcium mobilization (FLIPR)
T4 construct: expressed in transfected cells; host or cells: CHO (M2-CHO)
T4 sequence (P08172 1-466): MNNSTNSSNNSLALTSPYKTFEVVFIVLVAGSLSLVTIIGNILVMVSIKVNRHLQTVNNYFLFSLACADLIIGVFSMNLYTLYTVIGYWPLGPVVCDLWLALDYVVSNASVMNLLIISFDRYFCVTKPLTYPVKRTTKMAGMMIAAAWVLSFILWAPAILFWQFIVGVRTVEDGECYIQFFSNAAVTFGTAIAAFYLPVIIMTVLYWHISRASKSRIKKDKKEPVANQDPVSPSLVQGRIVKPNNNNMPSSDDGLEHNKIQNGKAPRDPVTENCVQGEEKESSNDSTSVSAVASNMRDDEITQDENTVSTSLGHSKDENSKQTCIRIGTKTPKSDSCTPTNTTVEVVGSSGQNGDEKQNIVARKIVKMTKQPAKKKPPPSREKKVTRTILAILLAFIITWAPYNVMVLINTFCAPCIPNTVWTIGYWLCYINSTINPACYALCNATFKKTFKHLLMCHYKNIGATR
How it was run: as §1

[5] = 100% efficacy = maximum response obtained with the Carbachol control
[6] = 100% efficacy is the maximum response obtained with the Carbachol control

Emax [1, 5] [%]	Emax [2, 5] [%]	Emax [3, 5] [%]	Emax [4, 5] [%]	Emax [1, 6] [%]	Emax [2, 6] [%]	Emax [3, 6] [%]	Emax [4, 6] [%]	SMILES	M1 Activity [1]	M4 Activity [2]	M3 Activity [3]	M2 Activity [4]
25 to 100	25 to 100	< 25	25 to 100	–	–	–	–	Cc1ccccc1C1CCN([C@H]2C[C@H]3CC[C@H]2C3)CC1 [Compound 24]	++ (activity was measured to be from 1.0 μM to 5.0 μM)	+++ (activity was measured to be less than 1.0 μM)	+ (activity was measured to be greater than 5.0 μM)	++ (activity was measured to be from 1.0 μM to 5.0 μM)
–	–	–	–	25 to 100	25 to 100	< 25	25 to 100	Cc1ccc(F)cc1C1CCN([C@@H]2C[C@H]3CC[C@H]2C3)CC1 [Compound 381]	++ (activity was measured to be from 1.0 μM to 5.0 μM)	+++ (activity was measured to be less than 1.0 μM)	+ (activity was measured to be greater than 5.0 μM)	++ (activity was measured to be from 1.0 μM to 5.0 μM)
–	–	–	–	25 to 100	25 to 100	< 25	25 to 100	COc1ccc(Cl)cc1C1CCN(C2(C)CCOCC2)CC1 [Compound 372]	++ (activity was measured to be from 1.0 μM to 5.0 μM)	+++ (activity was measured to be less than 1.0 μM)	+ (activity was measured to be greater than 5.0 μM)	++ (activity was measured to be from 1.0 μM to 5.0 μM)
25 to 100	25 to 100	< 25	25 to 100	–	–	–	–	COc1ccc(-c2ccc(S(C)(=O)=O)cc2)cc1C1CCN(C2CCCCC2)CC1 [Compound 268]	+ (activity was measured to be greater than 5.0 μM)	++ (activity was measured to be from 1.0 μM to 5.0 μM)	+ (activity was measured to be greater than 5.0 μM)	+ (activity was measured to be greater than 5.0 μM)
–	–	–	–	25 to 100	< 25	< 25	< 25	CCOC(=O)N1CCC(CN2CCC(c3cc(-c4ccc(S(=O)(=O)N5CCCC5)cc4)ccc3OC)CC2)CC1 [Compound 411]	+++ (activity was measured to be less than 1.0 μM)	+++ (activity was measured to be less than 1.0 μM)	+ (activity was measured to be greater than 5.0 μM)	+ (activity was measured to be greater than 5.0 μM)
25 to 100	25 to 100	< 25	25 to 100	–	–	–	–	Cc1ccc(C(F)(F)F)cc1C1CCN(C2CCOCC2)CC1 [Compound 358]	++ (activity was measured to be from 1.0 μM to 5.0 μM)	++ (activity was measured to be from 1.0 μM to 5.0 μM)	+ (activity was measured to be greater than 5.0 μM)	+ (activity was measured to be greater than 5.0 μM)
25 to 100	25 to 100	< 25	25 to 100	–	–	–	–	COc1ccc(Cl)cc1C1(F)CCN(C2CC3CCC(C3)C2)CC1 (stereo not shown) [Compound 356]	+ (activity was measured to be greater than 5.0 μM)	+++ (activity was measured to be less than 1.0 μM)	+ (activity was measured to be greater than 5.0 μM)	+ (activity was measured to be greater than 5.0 μM)
25 to 100	25 to 100	< 25	< 25	–	–	–	–	COc1ccccc1C1CCN(CC2CCOCC2)CC1 [Compound 233]	+ (activity was measured to be greater than 5.0 μM)	++ (activity was measured to be from 1.0 μM to 5.0 μM)	+ (activity was measured to be greater than 5.0 μM)	+ (activity was measured to be greater than 5.0 μM)
< 25	25 to 100	< 25	< 25	–	–	–	–	COc1c(F)cc(F)cc1C1CCN(C2CCOCC2)CC1 [Compound 305]	+ (activity was measured to be greater than 5.0 μM)	++ (activity was measured to be from 1.0 μM to 5.0 μM)	+ (activity was measured to be greater than 5.0 μM)	+ (activity was measured to be greater than 5.0 μM)

SMILES	Emax [1, 5] [%]	Emax [2, 5] [%]	Emax [3, 5] [%]	Emax [4, 5] [%]	Emax [1, 6] [%]	Emax [2, 6] [%]	Emax [3, 6] [%]	Emax [4, 6] [%]	M1 Activity [1]	M4 Activity [2]	M3 Activity [3]	M2 Activity [4]
CCOC(=O)N1CCC(N2CCC(O)(c3cc(Cl)ccc3OC)CC2)CC1 [Compound 31]	25 to 100	25 to 100	< 25	< 25	–	–	–	–	++ (activity was measured to be from 1.0 μM to 5.0 μM)	+++ (activity was measured to be less than 1.0 μM)	+ (activity was measured to be greater than 5.0 μM)	+ (activity was measured to be greater than 5.0 μM)
CCOC(=O)N1C2CCC1CC(N1CCC(c3cc(-c4ccc(C(=O)NC)c(Cl)c4)ccc3OC)CC1)C2 (stereo not shown) [Compound 226]	< 25	25 to 100	< 25	< 25	–	–	–	–	+ (activity was measured to be greater than 5.0 μM)	++ (activity was measured to be from 1.0 μM to 5.0 μM)	+ (activity was measured to be greater than 5.0 μM)	+ (activity was measured to be greater than 5.0 μM)
